This note sets out measurements from patent publication US10219516B2, “Molecules having pesticidal utility, and intermediates, compositions, and processes, related thereto” (priority 2015, dated 2019).

SMILES strings stand for the structures. Read-outs that look alike come from different tables or passages of the source.

Holding throughout (type): in vivo
In assay [1] the test system is Beet Armyworm (Spodoptera exigua, LAPHEG). Nature of the assay: Bioassay on Beet Armyworm (BAW), 128-well diet tray assay. Summed up:
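Artificial diet surface-treated with 50 μg/cm^2 test molecule in 90:10 acetone-water, dried, then infested with one to five second instar larvae per well. Held covered and vented at 25° C., 14:10 light-dark for five to seven days; percent mortality recorded per well and averaged over eight wells.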

Assay [2] has as its system Cabbage Looper (Trichoplusia ni, TRIPNI). Briefly: Bioassay on Cabbage Looper (CL), 128-well diet tray assay. As to conditions: Trichoplusia ni. Summed up: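 Mortality of second instar larvae exposed to diet coated with 50 μg/cm^2 compound (acetone-water 90:10 vehicle, dried); 25° C., 5–7 days.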
In assay [3] the test system is Yellow Fever Mosquito (Aedes aegypti, AEDSAE). Nature of the assay: Bioassay on Yellow Fever Mosquito (YFM), 96-well plate larval assay. As to conditions: for YFM rating: Yellow Fever Mosquito, 96-well plate larval assay; for YFM (Biological Results, rating): Species YFM (Yellow Fever Mosquito). Summed up:
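Compound stocks at 4000 ppm in DMSO were diluted with 90:10 water/acetone, and 15 μL aliquots were dispensed into six replicate plates. About 1-day-old larvae in liver-powder water were added per well. Plates were covered and held at room temperature for 3 days before each well was scored for mortality.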

The mark [4] stands for this setting: Beet Armyworm, 128-well diet tray assay, read-out: BAW rating.
Setting [5] is: Cabbage Looper, 128-well diet tray assay, read-out: CL rating.
Setting [6] is: Species BAW (Beet Armyworm), read-out: BAW (Biological Results, rating).
Setting [7] is: Species CL (Cabbage Looper), read-out: CL (Biological Results, rating).

As for `C#Cc1cc([C@H]2[C@H](C(=O)Nc3ccc(Cl)c(C(=O)Nc4ccc(F)cc4)c3)C2(Cl)Cl)ccc1Cl` (relative stereo) [F410, 2-Chloro-5-(trans-2,2-dichloro-3-(4-chloro-3-ethynylphenyl)cyclopropane-1-carboxamido)-N-(4-fluorophenyl)benzamide], the pest or weed control at 50 µg/cm2 in assay [1] (setting [4]) and in assay [2] (setting [5]) was 50 to 100% throughout. For the same compound, in assay [3], the YFM rating result is given as “A (80-100)”.
`O=C1Cc2cc(NC(=O)c3cc(NC(=O)[C@H]4[C@H](c5cc(Cl)cc(Cl)c5)C4(Cl)Cl)ccc3Cl)ccc2N1` (relative stereo) [F472, 2-Chloro-5-(trans)-(2,2-dichloro-3-(3,5-dichlorophenyl)cyclopropane-1-carboxamido)-N-(2-oxoindolin-5-yl)benzamide]: the pest or weed control at 50 µg/cm2 in assay [1] (setting [4]) and in assay [2] (setting [5]) was 50 to 100% in each case. In addition, the YFM rating result in assay [3] is “A (80-100)”.
Take `Cc1cc(NC(=O)OC(C)(C)C)ccc1NC(=O)c1cc(NC(=O)[C@H]2[C@H](c3ccc(F)c(Cl)c3)C2(Cl)Cl)ccc1Cl` [F290, tert-Butyl (4-(2-chloro-5-((1R,3R)-2,2-dichloro-3-(3-chloro-4-fluorophenyl)cyclopropane-1-carboxamido)benzamido)-3-methylphenyl)carbamate]: the pest or weed control at 50 µg/cm2 in assay [1] (setting [6]) and in assay [2] (setting [7]) was 50 to 100% in each case. The “YFM (Biological Results, rating)” value in assay [3] is given as “A (80-100)”.
Turning to `O=C(Nc1cc2cc[nH]c2cc1F)c1cc(NC(=O)[C@H]2[C@H](c3cc(Cl)cc(Cl)c3)C2(Cl)Cl)ccc1Cl` (relative stereo) [F527, 2-Chloro-5-(trans)-(2,2-dichloro-3-(3,5-dichlorophenyl)cyclopropane-1-carboxamido)-N-(6-fluoro-1H-indol-5-yl)benzamide], the pest or weed control at 50 µg/cm2 in assay [1] (setting [4]) and in assay [2] (setting [5]) was 50 to 100% each time. In addition, the YFM rating result in assay [3] is recorded as “A (80-100)”.
On to `O=C(CC1CC1)Nc1ccc(NC(=O)c2cc(NC(=O)[C@H]3[C@H](c4cc(Cl)cc(Cl)c4)C3(Cl)Cl)ccc2Cl)cc1` (relative stereo) [PF163, trans-2-Chloro-N-(4-(2-cyclopropylacetamido)phenyl)-5-(2,2-dichloro-3-(3,5-dichlorophenyl)cyclopropane-1-carboxamido)benzamide], for which the pest or weed control at 50 µg/cm2 in assay [1] (setting [4]) and in assay [2] (setting [5]) was 50 to 100% each time. For the same compound, the YFM rating result in assay [3] is listed as “A (80-100)”.
Turning to `Cc1cc(N)ccc1NC(=O)c1cc(NC(=O)[C@H]2[C@H](c3ccc(Cl)c(Cl)c3)C2(Cl)Cl)ccc1Cl` (relative stereo) [F574, trans-N-(4-Amino-2-methylphenyl)-2-chloro-5-(2,2-dichloro-3-(3,4-dichlorophenyl)cyclopropane-1-carboxamido)benzamide], the pest or weed control at 50 µg/cm2 in assay [1] (setting [4]) and in assay [2] (setting [5]) was 50 to 100% each time. For the same compound, in assay [3], the YFM rating result is “A (80-100)”.
For `Nc1cc(F)cc(F)c1NC(=O)c1cc(NC(=O)[C@H]2[C@H](c3cc(Cl)cc(Cl)c3)C2(Cl)Cl)ccc1Cl` [F406, N-(2-Amino-4,6-difluorophenyl)-2-chloro-5-((1R,3R)-2,2-dichloro-3-(3,5-dichlorophenyl)cyclopropane-1-carboxamido)benzamide], the pest or weed control at 50 µg/cm2 in assay [1] (setting [4]) and in assay [2] (setting [5]) was 50 to 100% throughout. In assay [3], the YFM rating entry is given as “A (80-100)”.
Regarding `Nc1c(F)ccc(NC(=O)c2cc(NC(=O)[C@H]3[C@H](c4ccc(F)c(Cl)c4)C3(Cl)Cl)ccc2Cl)c1F` [F317, N-(3-Amino-2,4-difluorophenyl)-2-chloro-5-((1R,3R)-2,2-dichloro-3-(3-chloro-4-fluorophenyl)cyclopropane-1-carboxamido)benzamide], the pest or weed control at 50 µg/cm2 in assay [1] (setting [6]) and in assay [2] (setting [7]) was 50 to 100% throughout. In addition, the “YFM (Biological Results, rating)” value in assay [3] was “A (80-100)”.
For the compound `CS(=O)(=NC#N)c1ccc(NC(=O)c2cc(NC(=O)C3C(c4cc(Cl)cc(Cl)c4)C3(Cl)Cl)ccc2Cl)cc1` (stereo not drawn) [F502, trans-2-chloro-N-(4-(N-cyano-S-methylsulfonimidoyl)phenyl)-5-(2,2-dichloro-3-(3,5-dichlorophenyl)cyclopropane-1-carboxamido)benzamide], the pest or weed control at 50 µg/cm2 in assay [1] (setting [4]) and in assay [2] (setting [5]) was 50 to 100% each time. Further, the YFM rating entry in assay [3] is listed as “A (80-100)”.
Turning to `O=C(Nc1ncc(F)cc1F)c1cc(NC(=O)[C@H]2[C@H](c3ccc(F)c(Cl)c3)C2(Cl)Cl)ccc1Cl` [F316, 2-Chloro-5-((1R,3R)-2,2-dichloro-3-(3-chloro-4-fluorophenyl)cyclopropane-1-carboxamido)-N-(3,5-difluoropyridin-2-yl)benzamide], the pest or weed control at 50 µg/cm2 in assay [1] (setting [6]) and in assay [2] (setting [7]) was 50 to 100% each time. The “YFM (Biological Results, rating)” value in assay [3] is on record as “A (80-100)”.
For the compound `O=C(Nc1ccc(F)cc1F)c1cc(NC(=O)[C@H]2[C@H](c3ccc(Cl)c(Br)c3)C2(Cl)Cl)ccc1Cl` (relative stereo) [F331, 5-(trans-3-(3-Bromo-4-chlorophenyl)-2,2-dichlorocyclopropane-1-carboxamido)-2-chloro-N-(2,4-difluorophenyl)benzamide], the pest or weed control at 50 µg/cm2 in assay [1] (setting [6]) and in assay [2] (setting [7]) was 50 to 100% throughout. In addition, the “YFM (Biological Results, rating)” value in assay [3] was “A (80-100)”.
As for `Nc1c(F)cc(NC(=O)c2cc(NC(=O)[C@H]3[C@H](c4cc(Cl)c(Cl)c(Cl)c4)C3(Cl)Cl)ccc2Cl)cc1F` [F380, N-(4-Amino-3,5-difluorophenyl)-2-chloro-5-((1R,3R)-2,2-dichloro-3-(3,4,5-trichlorophenyl)cyclopropane-1-carboxamido)benzamide], the pest or weed control at 50 µg/cm2 in assay [1] (setting [4]) and in assay [2] (setting [5]) was 50 to 100% each time. The YFM rating entry in assay [3] is given as “A (80-100)”.
`N#Cc1c(Cl)cccc1NC(=O)c1cc(NC(=O)[C@H]2[C@H](c3cc(Cl)cc(Cl)c3)C2(Cl)Cl)ccc1Cl` (relative stereo) [F302, 2-Chloro-N-(3-chloro-2-cyanophenyl)-5-(trans-2,2-dichloro-3-(3,5-dichlorophenyl)cyclopropane-1-carboxamido)benzamide]: the pest or weed control at 50 µg/cm2 in assay [1] (setting [6]) and in assay [2] (setting [7]) was 50 to 100% throughout. The “YFM (Biological Results, rating)” value in assay [3] was “A (80-100)”.
Regarding `O=C(Nc1ccc(F)cc1Cl)c1cccc(NC(=O)[C@H]2[C@H](c3cc(Cl)cc(Cl)c3)C2(Cl)Cl)c1` (relative stereo) [F274, trans-N-(2-Chloro-4-fluorophenyl)-3-(2,2-dichloro-3-(3,5-dichlorophenyl)cyclopropane-1-carboxamido)benzamide], the pest or weed control at 50 µg/cm2 in assay [1] (setting [6]) and in assay [2] (setting [7]) was 50 to 100% each time. Besides, in assay [3], the “YFM (Biological Results, rating)” value is recorded as “A (80-100)”.
Take `O=C(Nc1ccc2[nH]c(-c3ccccc3)cc2c1)c1cc(NC(=O)[C@H]2[C@H](c3cc(Cl)cc(Cl)c3)C2(Cl)Cl)ccc1Cl` (relative stereo) [F497, 2-Chloro-5-(trans)-(2,2-dichloro-3-(3,5-dichlorophenyl)cyclopropane-1-carboxamido)-N-(2-phenyl-1H-indol-5-yl)benzamide]: the pest or weed control at 50 µg/cm2 in assay [1] (setting [4]) and in assay [2] (setting [5]) was 50 to 100% each time. Moreover, the YFM rating result in assay [3] is on record as “A (80-100)”.
`CN(C(=O)c1cc(NC(=O)[C@H]2[C@H](c3ccc(C(F)F)c(F)c3)C2(Cl)Cl)ccc1Cl)c1ccc(F)cc1` (relative stereo) [F597, 2-Chloro-5-(trans-2,2-dichloro-3-(4-(difluoromethyl)-3-fluorophenyl)cyclopropane-1-carboxamido)-N-(4-fluorophenyl)-N-methylbenzamide]: the pest or weed control at 50 µg/cm2 in assay [1] (setting [4]) and in assay [2] (setting [5]) was 50 to 100% in each case. In assay [3], the YFM rating result was “A (80-100)”.
For the compound `O=C(Nc1ccc(F)cc1)c1cc(NC(=O)[C@H]2[C@H](c3cc(Cl)cc(Cl)c3)C2(Cl)Cl)cc(Cl)c1Cl` (relative stereo) [F216, trans-2,3-Dichloro-5-(2,2-dichloro-3-(3,5-dichlorophenyl)cyclopropane-1-carboxamido)-N-(4-fluorophenyl)benzamide], the pest or weed control at 50 µg/cm2 in assay [1] (setting [6]) and in assay [2] (setting [7]) was 50 to 100% throughout. Moreover, in assay [3], the “YFM (Biological Results, rating)” value was “B (More than 0-Less than 80)”.
Regarding `Nc1c(F)cc(NC(=O)c2cc(NC(=O)[C@H]3[C@H](c4ccc(F)c(Cl)c4)C3(Cl)Cl)ccc2Cl)cc1F` [F381, N-(4-Amino-3,5-difluorophenyl)-2-chloro-5-((1R,3R)-2,2-dichloro-3-(3-chloro-4-fluorophenyl)cyclopropane-1-carboxamido)benzamide], the pest or weed control at 50 µg/cm2 in assay [1] (setting [4]) and in assay [2] (setting [5]) was 50 to 100% each time. Besides, the YFM rating result in assay [3] is “A (80-100)”.
On to `Cc1cc(N)ccc1NC(=O)c1cc(NC(=O)[C@H]2[C@H](c3ccc(F)c(Cl)c3)C2(Cl)Cl)ccc1Cl` (relative stereo) [F228, trans-N-(4-Amino-2-methylphenyl)-2-chloro-5-(2,2-dichloro-3-(3-chloro-4-fluorophenyl)cyclopropane-1-carboxamido)benzamide], for which the pest or weed control at 50 µg/cm2 in assay [1] (setting [6]) and in assay [2] (setting [7]) was 50 to 100% throughout. In addition, the “YFM (Biological Results, rating)” value in assay [3] is “A (80-100)”.
